A value given as a limit tells only on which side of the number the result lay.

This note sets out measurements from ChEMBL document CHEMBL3734670, “Synthetic spirocyclic endoperoxides: new antimalarial scaffolds” (Medchemcomm, 2015).

Data set [1] relates to Plasmodium falciparum. In words: Antiplasmodial activity against chloroquine-sensitive Plasmodium falciparum D10 infected in human A positive erythrocyte assessed as inhibition of parasite growth after 72 hrs by parasite lactate dehydrogenase assay. Type of data set: functional, organism-based. The settings on record: D10, 72 h.
Data set [2] concerns Plasmodium falciparum. In words: Antiplasmodial activity against chloroquine-resistant Plasmodium falciparum W2 infected in human A positive erythrocyte assessed as inhibition of parasite growth after 72 hrs by parasite lactate dehydrogenase assay. Type of data set: functional, organism-based. The settings on record: W2, 72 h.
Data set [3] is described as follows: Cytotoxicity against mouse NIH/3T3 cells assessed as cell viability after 24 hrs by neutral red uptake assay. Type of data set: cell-based, NIH3T3. The conditions noted are these: read-out: TC50.
The subject of another data set is Plasmodium berghei. In words: Antimalarial activity against chloroquine-sensitive Plasmodium berghei ANKA erythrocytic stage infected in BALB/c mouse assessed as reduction in parasitaemia at 100 mg/kg, ip qd after 5 days by Peters 4 days test. Type of data set: functional. Details: scale not given: the % may be the effect or the level left.
A further data set concerns Mus musculus. In words: Toxicity against BALB/c mouse infected with chloroquine-sensitive Plasmodium berghei ANKA at 100 mg/kg, ip qd for 5 days. Type of data set: organism-based. The settings on record: in vivo, 120 h.

Regarding `C[C@@]12CCO[C@@H]1OO[C@@](C)(C1CCCCC1)C2` (mixture of isomers), the IC50 was 390 nM in the data set with Plasmodium falciparum [1] and 140 nM in the data set with Plasmodium falciparum [2].
In the case of `C[C@@]1(CC23CC4CC(CC(C4)C2)C3)C[C@]2(C)CCO[C@@H]2OO1` (mixture of isomers), the IC50 stood at 850 nM with Plasmodium falciparum [1] and 390 nM in the data set with Plasmodium falciparum [2].
For `C[C@@]12CCO[C@@H]1OO[C@@](C)(C1CCCC1)C2` (mixture of isomers), the IC50 in the data set with Plasmodium falciparum [1] was found to be 1200 nM; with Plasmodium falciparum [2], 800 nM.
`C[C@@]12CCO[C@@H]1OOC1(C2)C2CC3CC(C2)CC1C3` (mixture of isomers): the IC50 in the data set on Plasmodium falciparum [1] was 610 nM; in the data set with Plasmodium falciparum [2], 160 nM. In addition, in data set [3], the CC50 at 24 h is 150000 nM. In addition, the figures for the Activity with Plasmodium berghei and in the data set with Mus musculus were 72.5% and “Non-toxic”, respectively.
`C1CCC2(CC1)OO[C@H]1CCCC[C@H]12` (racemic): the figures for the IC50 with Plasmodium falciparum [1] and in the data set with Plasmodium falciparum [2] were 7200 nM and 3200 nM, respectively.
The like results for `C[C@@]12CCO[C@@H]1OOC21CCCCC1` (racemic) were, in that order, 8500 nM and greater than 25000 nM.
Turning to `C[C@@]12CCO[C@@H]1OOC1(CCCCC1)C2` (racemic), the IC50 is 5300 nM in the data set with Plasmodium falciparum [1] and 1100 nM in the data set with Plasmodium falciparum [2].
The like results for `C[C@@]12CCO[C@@H]1OOC1(CCCCC1)CC2` (racemic) were, in that order, greater than 20000 nM and greater than 17000 nM.
`C[C@@]12CCO[C@@H]1OOC1(CCCC1)C2` (racemic): the IC50 with Plasmodium falciparum [1] is 840 nM; with Plasmodium falciparum [2], 470 nM.
As for `C[C@@H]1CC[C@H]2[C@@H](C)C(=O)O[C@@H]3O[C@@]4(C)CC[C@@H]1[C@]32OO4` [ARTEMISININ], the IC50 with Plasmodium falciparum [2] stood at 12 nM.

For orientation: IC50 means the midpoint of a concentration-inhibition curve.
